For seven compounds, Activity, Ratio and K results are on record in ChEMBL document CHEMBL4184155, “Resveratrol analogues like piceatannol are potent antioxidants as quantitatively demonstrated through the high scavenging ability against reactive oxygen species and methyl radical” (Bioorg Med Chem Lett, 2017).

What all share (type): functional
Assay [1] can be described thus: Antioxidant activity assessed as Trolox equivalents of photolysis-induced hydroxyl radical scavenging activity using DMPO spin trap by ESR spectroscopic method.
Assay [2] in a line: Antioxidant activity assessed as relative scavenging rate constant for photolysis-induced hydroxyl radical scavenging activity by measuring Kaox/Kst ratio using DMPO spin trap by ESR spectroscopic method.
The nature of assay [3]: Antioxidant activity assessed as Trolox equivalents of photolysis-induced superoxide anion scavenging activity using CYPMPO spin trap by ESR spectroscopic method.
A short description of assay [4]: Antioxidant activity assessed as Trolox equivalents of photolysis-induced methyl radical scavenging activity using DMPO spin trap by ESR spectroscopic method.
Assay [5] can be described thus: Antioxidant activity assessed as Trolox equivalents of photolysis-induced alkoxyl scavenging activity using DMPO spin trap by ESR spectroscopic method.
A short description of assay [6]: Antioxidant activity assessed as relative scavenging rate constant for photolysis-induced singlet oxygen scavenging activity by measuring Kaox/Kst ratio using 4-HO-TEMP spin trap by ESR spectroscopic method.
Assay [7] in a line: Antioxidant activity assessed as rate constant for singlet oxygen scavenging activity in aqueous solution by EPR spectroscopic method.
Assay [8] is described as follows: Antioxidant activity assessed as relative scavenging rate constant for photolysis-induced methyl radical scavenging activity by measuring Kaox/Kst ratio using DMPO spin trap by ESR spectroscopic method.
Assay [9] in a line: Antioxidant activity assessed as rate constant for singlet oxygen scavenging activity in methanol solution by EPR spectroscopic method.
A short description of assay [10]: Antioxidant activity assessed as Trolox equivalents of photolysis-induced peroxyl scavenging activity using CYPMPO spin trap by ESR spectroscopic method.
The nature of assay [11]: Antioxidant activity assessed as Trolox equivalents of photolysis-induced singlet oxygen scavenging activity using 4-HO-TEMP spin trap by ESR spectroscopic method.
Assay [12] in a line: Antioxidant activity assessed as relative scavenging rate constant for photolysis-induced peroxyl scavenging activity by measuring Kaox/Kst ratio using CYPMPO spin trap by ESR spectroscopic method.
A short description of assay [13]: Antioxidant activity assessed as relative scavenging rate constant for photolysis-induced super-oxide anion scavenging activity by measuring Kaox/Kst ratio using CYPMPO spin trap by ESR spectroscopic method.
Assay [14] can be described thus: Antioxidant activity assessed as relative scavenging rate constant for photolysis-induced alkoxyl scavenging activity by measuring Kaox/Kst ratio using DMPO spin trap by ESR spectroscopic method.
Assay [15] in a line: Antioxidant activity assessed as rate constant for photolysis-induced methyl radical scavenging activity using DMPO spin trap by ESR spectroscopic method.
Assay [16] is described as follows: Antioxidant activity assessed as rate constant for singlet oxygen scavenging activity in ethanol-water (1:1 v/v) mixture using phosphorescence-based single-photon-counting method.

With `Oc1ccc(/C=C/c2cc(O)cc(O)c2)cc1`, the Activity is 0.5 equiv in [1]; 0.4 equiv in assay [3]; -0 equiv in assay [4]; 0.2 equiv in assay [5]; 0.69 equiv in [10]; 3 equiv in assay [11]. Further, the Ratio in [2] is 15.8; in assay [6], 7080; in assay [8], -0; in assay [12], 19.6; in assay [13] it was 33.4; in assay [14] it was 23.3. Also, the results for the K in [7] and in assay [9] were 3.92 ×10⁹ /M/s and 2.55 ×10⁷ /M/s, respectively.
As for `Oc1cc(O)cc(/C=C/c2ccc(O)cc2O)c1`, the Activity in assay [1] is 0.68 equiv; in assay [3], 0.45 equiv; in assay [4], 0.08 equiv; in assay [5] it was 0.17 equiv; in assay [10], 0.67 equiv; in assay [11] it was 3.4 equiv. For the same compound, the Ratio in [2] is 21.8; in assay [6], 7960; in assay [8], 3.98; in [12], 18.9; in [13] it was 37.4; in assay [14], 19.
As to `Oc1cc(O)cc(/C=C/c2ccc(O)c(O)c2)c1`, the Activity in assay [1] is 2.78 equiv; in assay [3], 1.86 equiv; in assay [4] it was 0.11 equiv; in [5] it was 0.36 equiv; in assay [10] it was 7.7 equiv; in [11], 7 equiv. The Ratio in [2] came out at 88.8; in [6], 16600; in [8], 5.65; in assay [12], 218; in assay [13] it was 156; in [14] it was 41.2. In assay [15], the K was 7.9 ×10⁷ /M/s.
Turning to `COc1cc(/C=C/c2ccc(O)cc2)cc(OC)c1`, the Activity in assay [1] was 0.47 equiv; in assay [3] it was 0.42 equiv; in assay [4], -0 equiv; in assay [5], 0.11 equiv; in assay [10], 0.88 equiv; in [11], 2 equiv. Further, the Ratio in assay [2] is 14.9; in [6] it was 4610; in assay [8] it was -0; in assay [12], 24.8; in [13], 35.6; in assay [14] it was 13.
With `COc1ccc(/C=C/c2cc(O)cc(O)c2)cc1O`, the Activity was 0.71 equiv in [1]; 0.84 equiv in [3]; 0.04 equiv in [4]; 0.1 equiv in [5]; 0.71 equiv in [10]; 3.7 equiv in assay [11]. Further, the Ratio in assay [2] is 22.6; in assay [6] it was 8780; in assay [8], 2.21; in assay [12] it was 21.1; in assay [13], 70.5; in [14] it was 11.9. For the same compound, the K in assay [15] came out at 3.1 ×10⁷ /M/s.
As for `Cc1c(C)c2c(c(C)c1O)CCC(C)(C(=O)O)O2` (centres undefined), the Ratio was 31.9 in [2]; 2360 in [6]; 50 in assay [8]; 28.3 in assay [12]; 83.9 in [13]; 115 in assay [14]. Besides, the K came out at 7 ×10⁸ /M/s in assay [15] and 6.22 ×10⁷ /M/s in assay [16].
For the compound `COc1cc(/C=C/c2ccc(OC)c(OC)c2)cc(OC)c1`, the Activity in [1] was 0.8 equiv; in assay [3] it was -0 equiv; in assay [4] it was -0 equiv; in assay [5] it was 0.21 equiv; in assay [10] it was 0.3 equiv; in assay [11] it was 0.11 equiv. Besides, the Ratio was 25.6 in assay [2]; 268 in assay [6]; -0 in assay [8]; 8.52 in [12]; -0 in assay [13]; 24.4 in assay [14].
